From the NIST ThermoML archive (doi:10.1021/acs.jced.6b00606)

Test: xn = mol fraction of the nth substance listed
Conditions: 100 kPa, Liquid; for speed of sound: Frequency=3 MHz, Sing-around technique in a fixed-path interferometer; for mass density: Vibrating tube method

O=C1CCCCCC1 [cycloheptanone] + C1COCCO1
Conditions	mass density, 293.15 K [kg/m3]	mass density, 298.15 K [kg/m3]	mass density, 303.15 K [kg/m3]	mass density, 308.15 K [kg/m3]	speed of sound, 293.15 K [m/s]	speed of sound, 298.15 K [m/s]	speed of sound, 303.15 K [m/s]	speed of sound, 308.15 K [m/s]
x2 = 0.0954	957.02	952.54	948.07	943.61	1466.3	1444.4	1422.1	1399.7
x2 = 0.1589	960.61	956.03	951.46	946.89	1459.2	1437.4	1415.3	1393
x2 = 0.2184	964.09	959.46	954.81	950.18	1452.6	1430.9	1408.9	1386.7
x2 = 0.2555	966.35	961.68	956.99	952.32	1448.6	1426.9	1404.9	1382.8
x2 = 0.3019	969.25	964.56	959.82	955.1	1443.6	1421.9	1400	1377.9
x2 = 0.3487	972.3	967.57	962.78	958.02	1438.6	1416.9	1395.1	1373
x2 = 0.3814	974.5	969.75	964.92	960.13	1435.1	1413.4	1391.6	1369.6
x2 = 0.4324	978.07	973.27	968.38	963.54	1429.7	1408	1386.3	1364.3
x2 = 0.4879	982.15	977.29	972.33	967.42	1423.8	1402.2	1380.5	1358.5
x2 = 0.5219	984.76	979.85	974.85	969.89	1420.3	1398.7	1377	1355
x2 = 0.5723	988.81	983.82	978.74	973.7	1415	1393.4	1371.8	1349.9
x2 = 0.6149	992.39	987.32	982.17	977.06	1410.5	1388.9	1367.4	1345.5
x2 = 0.6687	997.15	991.96	986.73	981.52	1404.8	1383.3	1361.7	1339.9
x2 = 0.7104	1001	995.75	990.44	985.15	1400.4	1378.9	1357.4	1335.6
x2 = 0.7489	1004.7	999.41	994.03	988.66	1396.3	1374.7	1353.3	1331.5
x2 = 0.7919	1009.2	1003.7	998.23	992.77	1391.6	1370.1	1348.6	1326.9
x2 = 0.8475	1015.1	1009.5	1004	998.45	1385.4	1363.9	1342.5	1320.7
x2 = 0.9018	1021.3	1015.6	1010.1	1004.4	1379.3	1357.8	1336.3	1314.5

O=C1CCCCC1 [cyclohexanone] + C1CCOCC1
Conditions	mass density, 293.15 K [kg/m3]	mass density, 298.15 K [kg/m3]	mass density, 303.15 K [kg/m3]	mass density, 308.15 K [kg/m3]	speed of sound, 293.15 K [m/s]	speed of sound, 298.15 K [m/s]	speed of sound, 303.15 K [m/s]	speed of sound, 308.15 K [m/s]
x2 = 0.1175	941.72	937.26	932.48	927.65	1411.4	1394.5	1373.6	1353.2
x2 = 0.1586	939.66	935.2	930.42	925.6	1404.6	1387.3	1366.3	1345.6
x2 = 0.1952	937.78	933.32	928.55	923.74	1398.7	1381	1359.7	1339.1
x2 = 0.2471	935.05	930.59	925.82	921.01	1390.5	1372.1	1350.7	1329.8
x2 = 0.2843	933.05	928.59	923.82	919.01	1384.6	1365.8	1344.4	1323.4
x2 = 0.3396	930	925.53	920.76	915.96	1376.1	1356.7	1335.2	1314
x2 = 0.3784	927.8	923.32	918.56	913.76	1370.3	1350.6	1328.9	1307.6
x2 = 0.4178	925.53	921.03	916.26	911.46	1364.5	1344.5	1322.6	1301.2
x2 = 0.462	922.91	918.41	913.62	908.82	1358.2	1337.8	1315.8	1294.2
x2 = 0.5009	920.56	916.03	911.24	906.44	1352.6	1332.1	1309.9	1288.3
x2 = 0.5486	917.59	913.03	908.24	903.43	1346.1	1325.3	1302.9	1281.1
x2 = 0.5814	915.51	910.91	906.13	901.31	1341.7	1320.7	1298.2	1276.3
x2 = 0.6379	911.8	907.17	902.35	897.53	1334.3	1313.2	1290.3	1268.3
x2 = 0.6899	908.28	903.58	898.75	893.91	1327.7	1306.4	1283.4	1261.3
x2 = 0.7389	904.83	900.08	895.23	890.37	1321.7	1299.7	1277	1254.8
x2 = 0.7804	901.82	897.02	892.14	887.26	1316.8	1294.6	1271.8	1249.6
x2 = 0.8345	897.76	892.89	887.96	883.04	1310.6	1288.1	1265.3	1242.9
x2 = 0.8929	893.19	888.23	883.23	878.25	1304.1	1281.4	1258.5	1236.1
